Assay results published in patent US20110028710A1, “PROCESS FOR THE RECOVERY OF HCL FROM A DILUTE SOLUTION THEREOF AND EXTRACTANT COMPOSITION FOR USE THEREIN” (HCL CLEANTECH LTD., priority 2008, published 2011).

Tests used:
[1] = analogous water-soluble acids of the prior-art strong acids; cited from earlier work
[2] = pH of 1N NaCl solution after contact with the organic acid (indirect acid strength test); conditions: 1 mol acid at 0.2 molar or higher in organic solvent contacted with equivalent NaCl in 1N aqueous solution
Description: The stronger the organic acid, the more the reaction moves in the right direction and the lower is the pH of the formed aqueous solution.

pH of the sodium chloride solution [2]	Compound	pKa [1]
–	O=C(O)c1c(Cl)ccc(Cl)c1C(=O)O [3,6-dichlorophtalic]	1.46
> 5	CCCCCCCCCCCC(=O)O [Lauric, lauric acid]	–
